In article PMC3914206:

Key:
[1] = target: T1, panel of 442 kinases (Homo sapiens, UniProt P43403); type: binding; details: kinase ZAP70; compound concentration 10 µM
T1 construct: purchased KINOMEscan
T1 sequence (P43403 1-619): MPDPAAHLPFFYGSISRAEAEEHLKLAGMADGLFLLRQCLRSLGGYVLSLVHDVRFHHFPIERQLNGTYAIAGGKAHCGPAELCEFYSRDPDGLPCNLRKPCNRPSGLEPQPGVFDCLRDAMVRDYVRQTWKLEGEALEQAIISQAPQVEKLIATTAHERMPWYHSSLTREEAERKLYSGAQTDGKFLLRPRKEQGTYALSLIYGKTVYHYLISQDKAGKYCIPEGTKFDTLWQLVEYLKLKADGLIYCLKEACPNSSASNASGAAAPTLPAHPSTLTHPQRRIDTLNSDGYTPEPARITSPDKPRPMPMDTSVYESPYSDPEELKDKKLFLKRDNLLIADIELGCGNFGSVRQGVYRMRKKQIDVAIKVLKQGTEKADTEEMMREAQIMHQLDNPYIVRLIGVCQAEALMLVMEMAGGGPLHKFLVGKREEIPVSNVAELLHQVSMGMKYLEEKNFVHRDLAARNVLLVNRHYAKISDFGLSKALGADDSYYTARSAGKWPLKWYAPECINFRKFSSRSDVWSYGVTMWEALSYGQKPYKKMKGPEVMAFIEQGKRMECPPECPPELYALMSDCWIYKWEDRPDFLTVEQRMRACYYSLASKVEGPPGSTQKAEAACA
Description: (§1) We assessed the selectivity of members of this scaffold using the KINOMEscan methodology across a near comprehensive panel of 442 kinases [[18,27]].

[2] = target: T2, panel of 442 kinases (Homo sapiens, UniProt P54753); type: binding; details: Compound Concentration 10 µM
T2 construct: purchased KINOMEscan
T2 sequence (P54753 34-998): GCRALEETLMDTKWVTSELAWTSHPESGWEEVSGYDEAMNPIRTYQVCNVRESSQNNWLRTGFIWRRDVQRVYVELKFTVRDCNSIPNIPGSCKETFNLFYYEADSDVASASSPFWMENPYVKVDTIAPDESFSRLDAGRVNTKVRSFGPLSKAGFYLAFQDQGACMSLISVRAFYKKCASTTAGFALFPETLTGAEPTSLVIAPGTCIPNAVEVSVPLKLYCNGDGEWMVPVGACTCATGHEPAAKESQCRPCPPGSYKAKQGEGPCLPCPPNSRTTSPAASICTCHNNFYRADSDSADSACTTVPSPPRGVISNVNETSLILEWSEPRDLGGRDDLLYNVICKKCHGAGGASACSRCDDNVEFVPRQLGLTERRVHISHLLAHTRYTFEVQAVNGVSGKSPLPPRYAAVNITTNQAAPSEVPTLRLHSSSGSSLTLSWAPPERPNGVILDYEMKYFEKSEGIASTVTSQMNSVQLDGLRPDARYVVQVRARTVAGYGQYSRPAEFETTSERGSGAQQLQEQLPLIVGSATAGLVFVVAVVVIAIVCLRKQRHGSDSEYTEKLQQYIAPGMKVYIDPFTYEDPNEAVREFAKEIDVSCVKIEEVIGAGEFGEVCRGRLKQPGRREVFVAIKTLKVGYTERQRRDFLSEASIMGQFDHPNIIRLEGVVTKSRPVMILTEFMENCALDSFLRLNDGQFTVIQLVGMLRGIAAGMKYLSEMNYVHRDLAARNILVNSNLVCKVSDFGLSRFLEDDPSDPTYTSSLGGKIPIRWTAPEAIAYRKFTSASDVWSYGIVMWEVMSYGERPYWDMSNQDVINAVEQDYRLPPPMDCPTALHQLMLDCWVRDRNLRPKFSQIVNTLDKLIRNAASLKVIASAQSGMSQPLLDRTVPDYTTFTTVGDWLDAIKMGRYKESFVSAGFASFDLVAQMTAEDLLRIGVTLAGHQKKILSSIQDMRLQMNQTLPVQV
Description: as §1

| Structure (SMILES) | % Ctrl, ZAP70 [1] [% Ctrl] | KINOMEscan: EPHB3 [2] |
| --- | --- | --- |
| COc1cc(C(=O)N2CCC(N3CCN(C)CC3)CC2)ccc1Nc1ncc2c(n1)N1CCc3cccc(c31)C(=O)N2C [Compound 24] | 100 | – |
| CCOc1cc(C(=O)N2CCC(N3CCN(C)CC3)CC2)ccc1Nc1ncc2c(n1)N(C1CCCC1)c1ccccc1C(=O)N2C [Compound 26] | 90 | 100 |
| COc1cc(C(=O)N2CCC(N3CCN(C)CC3)CC2)ccc1Nc1ncc2c(n1)N(C1CCCC1)c1ccccc1C(=O)N2C [Compound 25, 11-cyclopentyl-2-((2-methoxy-4-(4-(4-methylpiperazin-1-yl)piperidine-1-carbonyl)phenyl)amino)-5-methyl-5H-benzo[e]pyrimido[5,4-b][1,4]diazepin-6(11H)-one] | 79 | 96 |
| COc1cc(C(=O)N2CCC(N3CCN(C)CC3)CC2)ccc1Nc1ncc2c(n1)N(C)c1ccccc1C(=O)N2C [15 (LRRK2-IN-1)] | 79 | 100 |
